Measurements taken from patent US20210275514A1, “COMPOUNDS FOR USE IN TREATING KIDNEY DISORDERS” (Hoffmann-La Roche Inc., priority 2018, published 2021).
“Also recorded” adds a separate entry of the source.

Tested on: ABCA1
Assay: ABCA1 expression by western blot in differentiated podocytes
Assay type: cell-based, human
Conditions: 18 h
Description: Podocytes differentiated for 14 days were starved in RPMI-0.2% FBS for 18 h and then treated with freshly prepared dilutions of compounds in full media for 18 h at 37° C. and 5% CO2. Compound concentrations of 1 μM, 5 μM and 10 μM were evaluated. Cells were then washed with PBS and lysed with 1× cell lysis buffer (Cell Signaling) supplemented with protease and phosphatase inhibitor cocktails (Roche). Total protein content was determined by BCA method (Pierce, Thermoscientific). ABCA1 expression was analyzed by western blot.
Lysates, or cell fractions were incubated with buffer sample at 55° C. for 10 min under reducing conditions. A total of […] of protein in lysates, and one third of the volume collected in cell fraction preps, were separated by SDSPAGE in 4-20% gels (Biorad) and proteins were then transferred to PVDF membranes. Membranes were blocked with 5% milk and blotted with protein-specific antibodies for 18 h at 4° C. The following antibodies were used: mouse anti-ABCA1 (Abcam; 1:1,000), rabbit anti-GAPDH antibody (Millipore; 1:10,000), rabbit anti-MEK and anti-Na^+/K^+ ATPase (Cell Signaling; 1:1,000). After washing with PBS-T, membranes were incubated with anti-mouse and anti-rabbit specific antibodies conjugated to HRP (Promega) 1:10,000 in 5% milk. Membranes were washed and signal was developed using Western bright ECL substrate (Advansta).

Structure (SMILES) | ABCA1 expression (western blot, whole cell lysates) (doses as low as 1 uM, FIG. 4A) | ABCA1 expression (western blot, whole cell lysates) (1 μM, 5 μM and 10 μM evaluated)
O=C(O)c1ccc(-c2nnc([C@](F)([C@H]3Cc4[nH]c5ccc(Cl)cc5c4C3)S(=O)(=O)c3cccc(Br)c3)o2)cc1 (racemic) [Cpd D, 4-{5-[(RS)-(3-Bromo-benzenesulfonyl)-((SR)-7-chloro-1,2,3,4-tetrahydro-cyclopenta[b]indol-2-yl)-fluoro-methyl]-[1,3,4]oxadiazol-2-yl}-benzoic acid] | strong induction; also recorded: markedly increased | 
Cc1nnc([C@](F)([C@H]2Cc3[nH]c4ccc(Cl)cc4c3C2)S(=O)(=O)c2ccccc2)o1 [Cpd E, (R)-2-[(S)-Benzenesulfonyl-fluoro-(5-methyl-[1,3,4]oxadiazol-2-yl)-methyl]-7-chloro-1,2,3,4-tetrahydro-cyclopenta[b]indole] | strong induction; also recorded: markedly increased | 
O=C(Nc1cncnc1)c1ccc(OCC(F)(F)F)c(-c2ccc(Cl)cc2)n1 [Cpd F, 6-(4-chlorophenyl)-N-(pyrimidin-5-yl)-5-(2,2,2-trifluoroethoxy)picolinamide] |  | only Cpd A, and Cpd G, increased ABCA1 expression
